US8076487B2, “Pyridone derivative and herbicide” (Kumiai Chemical Industry Co., Ltd., priority 2006, dated 2011)

Tests used:
Experiment in all cases: Test Example 1: herbicidal effect by soil application to paddy field
Type in all cases: in vivo
Conditions in all cases: paddy field soil application; active ingredient 1,000 g per 1 hectare; wettable powder added dropwise to water surface the day after sowing; examined on the 21st day after application
[1] = system: Japanese bulrush (Scirpus juncoides Roxb.)
Text: (§1) Test Example 1 Test on Herbicidal Effect by Soil Application to Paddy Field In a 100 cm2 plastic pot, paddy field soil was filled. After puddling and leveling, seeds of early watergrass (Echinochloa oryzicola […] (Monochoria vaginalis ([…] Japanese bulrush (Scirpus juncoides Roxb.) were sown, and water was filled to be flooded to a water depth of 3 cm. […] Then, on the 21st day after the application to the plants grew in a greenhouse, the herbicidal effect was examined in accordance with a standard shown in Table 34. [table]

[2] = system: early watergrass (Echinochloa oryzicola Vasing)
Text: as §1

[3] = system: heartshape false pickerelweed (Monochoria vaginalis (Burm.f.) C.Presl)
Text: as §1

Row | SMILES | herbicidal effect, Scirpus juncoides Roxb. [1] | herbicidal effect, Echinochloa oryzicola Vasing [2] | herbicidal effect, Monochoria vaginalis (Burm. f.) C. Presl [3]
1 | Cn1c(C(F)(F)F)ccc(C(=O)C2=C(Sc3ccccc3Cl)CCCC2=O)c1=O [II-11] | 5 (90% or more of herbicidal effect and crop phytotoxicity) | 5 (90% or more of herbicidal effect and crop phytotoxicity) | 5 (90% or more of herbicidal effect and crop phytotoxicity)
2 | Cn1c(C(F)(F)F)ccc(C(=O)C2=C(Sc3cccc(Cl)c3)CCCC2=O)c1=O [II-12] | 5 (90% or more of herbicidal effect and crop phytotoxicity) | 5 (90% or more of herbicidal effect and crop phytotoxicity) | 5 (90% or more of herbicidal effect and crop phytotoxicity)
3 | Cn1c(C(F)(F)F)ccc(C(=O)C2=C(Sc3ccc(Cl)cc3)CCCC2=O)c1=O [II-13] | 5 (90% or more of herbicidal effect and crop phytotoxicity) | 5 (90% or more of herbicidal effect and crop phytotoxicity) | 5 (90% or more of herbicidal effect and crop phytotoxicity)
4 | Cn1c(C(F)(F)F)ccc(C(=O)C2=C(Sc3c(Cl)cccc3Cl)CCCC2=O)c1=O [II-15] | 5 (90% or more of herbicidal effect and crop phytotoxicity) | 5 (90% or more of herbicidal effect and crop phytotoxicity) | 5 (90% or more of herbicidal effect and crop phytotoxicity)
5 | Cn1c(C(F)(F)F)ccc(C(=O)C2=C(Sc3c(Cl)c(Cl)c(Cl)c(Cl)c3Cl)CCCC2=O)c1=O [II-16] | 5 (90% or more of herbicidal effect and crop phytotoxicity) | 5 (90% or more of herbicidal effect and crop phytotoxicity) | 5 (90% or more of herbicidal effect and crop phytotoxicity)
6 | Cn1c(C(F)(F)F)ccc(C(=O)C2=C(n3cccn3)CCCC2=O)c1=O [II-17] | 5 (90% or more of herbicidal effect and crop phytotoxicity) | 5 (90% or more of herbicidal effect and crop phytotoxicity) | 5 (90% or more of herbicidal effect and crop phytotoxicity)
7 | Cn1c(C(F)(F)F)ccc(C(=O)C2=C(Sc3ccccc3)CC(C)(C)CC2=O)c1=O [II-19] | 5 (90% or more of herbicidal effect and crop phytotoxicity) | 5 (90% or more of herbicidal effect and crop phytotoxicity) | 5 (90% or more of herbicidal effect and crop phytotoxicity)
8 | CC(CCn1c(C(F)(F)F)ccc(C(=O)C2=C(O)C(C)CCC(C)C2=O)c1=O)=C(F)F (stereo not drawn) [II-27] | 5 (90% or more of herbicidal effect and crop phytotoxicity) | 5 (90% or more of herbicidal effect and crop phytotoxicity) | 5 (90% or more of herbicidal effect and crop phytotoxicity)
9 | COCCCn1c(C(F)(F)F)ccc(C(=O)C2=C(Sc3ccccc3)CCCC2=O)c1=O [II-30] | 5 (90% or more of herbicidal effect and crop phytotoxicity) | 5 (90% or more of herbicidal effect and crop phytotoxicity) | 5 (90% or more of herbicidal effect and crop phytotoxicity)
10 | COC1=C(C(=O)c2ccc(C(F)(F)F)n(C)c2=O)C(=O)CCC1C (stereo not drawn) [II-35] | 5 (90% or more of herbicidal effect and crop phytotoxicity) | 5 (90% or more of herbicidal effect and crop phytotoxicity) | 5 (90% or more of herbicidal effect and crop phytotoxicity)
11 | CCCS(=O)(=O)Oc1c(C(=O)c2ccc(C(F)(F)F)n(CC(C)OCc3ccccc3)c2=O)cnn1C (stereo not drawn) [IV-49] | 3 (50 to less than 70% of herbicidal effect and crop phytotoxicity) | 5 (90% or more of herbicidal effect and crop phytotoxicity) | 5 (90% or more of herbicidal effect and crop phytotoxicity)
